Source: patent US11628171B2, “Method for treating brain or nerve injury” (CHILDREN'S MEDICAL CENTER CORPORATION, priority 2019, dated 2023)

System: retinal ganglion cells
Experiment: Optic nerve injury model ("optic crush" model), retinal ganglion cell survival
Assay type: in vivo
Conditions: male mice, intraocular injection following optic nerve injury, 14 days after injury, compared with PBS control; difference statistically significant (FIG. 1)
Description: A PDE1 inhibitory compound was tested in an optic nerve injury model (i.e., the “optic crush” model). The studies described below were carried out using the selective PDE1 inhibitor IC200041, which has the following structure:
In this model, optic nerve surgeries were performed on male mice 8 weeks of age (average body weight, 20-26 g) under general anesthesia, as described previously (Yin Y, et al., Oncomodulin links inflammation to optic nerve regeneration. Proc Natl Acad Sci USA. 2009; 106:19587-19592). Following nerve injury, 3 μl of fluid was removed from the eye and a solution containing the PDE1 inhibitory compound was injected intraocularly.
A total of 4 mouse retinas were treated with the PDE1 inhibitor, and phosphate buffered saline (PBS) was administered to a total of 10 mouse retinas as a control. Mice were typically euthanized with an overdose of anesthesia 14 days after optic nerve injury and were perfused with saline and 4% paraformaldehyde (PFA). These mice were 10 weeks old when killed. Optic nerves and eyes were dissected and postfixed in PFA. […] Axons were counted manually in at least 8 longitudinal sections per case at pre-specified distances from the injury site, and these numbers were converted into the number of regenerating axons at various distances.

SMILES: CN1C(=O)c2c(nn(Cc3ccc(-c4ccccn4)cc3)c2Nc2ccccc2)N2C1=N[C@@H]1CCC[C@@H]12 [IC200041]
- survival of retinal ganglion cells: highly effective in increasing the survival of retinal ganglion cells
